Test results: patent US20040096356A1, “Assay device for determining analytes in a liquid dairy product” (priority 1997, published 2004)

Legend:
[1] = biological target: T1, enzyme R39 (soluble exocellular D-alanyl-D-alanine carboxypeptidase produced by Actinomadura R39) (Actinomadura sp., UniProt P39045); test: Test 2, sensitive test (7 minutes): strip test for β-lactam antibiotics in milk using enzyme R39; assay type: binding; conditions: for Intensity 1st band: scale 0 to 10, reference band 6, 47° C., 5 min incubation + 2 min migration
T1 construct: soluble exocellular D-alanyl-D-alanine carboxypeptidase produced by Actinomadura R39, obtained by the procedure described in J.-M. Frere et al; made in house; host or cells: Actinomadura R39 (natural producer, secreted enzyme)
Experimental: (§1) The identifier used in this example is soluble exocellular D-alanyl-D-alanine carboxypeptidase produced by Actinomadura R39, obtained by the procedure described in J.-M. Frere et al., Antimicrobial Agents and Chemotherapy, 18(4), 506-510 (1980).
(§2) 250 μl of an aqueous solution of enzyme R39 having a concentration of 1 mg/ml are dialysed for 24 hours against 500 ml of HNM buffer (Hepes 10 mM, pH 8, NaCl 10 mM, MgCl2 5 mM). To this dialysed solution of enzyme R39 are then added 2 ml of bicarbonate buffer (0.1 M sodium bicarbonate, pH 9) and 250 μl of a solution of N-hydroxysuccinimide 6-(biotinamido)caproic ester having a concentration of 5 mg/ml in anhydrous DMF. This solution is stirred gently in the LABINCO stirrer for tubes on a rotary axis (available from VEL, Belgium) at a rate of 2 revolutions/minute for 3 hours at room temperature and away from light. The solution thus obtained is dialysed against the HNM buffer ([…]) for 24 hours. In this way a solution of biotinylated enzyme R39 is obtained which is diluted in HNM-BSA buffer (Hepes 500 mM; pH 8, NaCl 500 mM, MgCl2 250 mM, BSA 10 mg/ml) to a concentration of 100 μg of enzyme R39 per ml of buffer. This solution is stored at −20° C.
(§3) As the marker use is made of particles of gold having a diameter of 40 nm on which a goat anti-biotin antibody has been deposited in the form of suspensions in a 2 mM aqueous sodium tetraborate solution, with a pH of 7.2, stabilized by 0.1% of sodium azide (available from British Biocell (Ref. GAB40)). The optical density of these suspensions at 520 nm is approximately 10 and the protein concentration is approximately 24 μg/ml.
(§4) The biotinylated enzyme R39 solution prepared in Example 2.2.1 is diluted 50 times with the HNM-BSA buffer (Hepes 500 mM, pH 8, NaCl 500 mM, MgCl2 250 mM, BSA 10 mg/ml). At room temperature, 17.5 parts by volume of this dilute biotinylated enzyme R39 solution, 9.27 parts by volume of the gold particle suspension used to label the enzyme R39 and 6 parts by volume of reference gold particle suspension are mixed (see Example 2.3).
(§5) The first capture substance makes it possible to fix the identifiers coupled with the free markers present in excess relative to the quantity of antibiotic present in the sample.
(§6) Assay devices containing membranes (2), (3) and (4) are used, assembled in accordance with the procedure described in Example 1.1. The membrane (3) of these devices carries on the proximal side the capture substance described in Example 2.4.1. and on the distal side the capture substance described in Example 2.4.2. The capture substances were deposited in accordance with the procedure described in Example 1.2.
Six samples of milk are prepared, containing 0; 2; 2.5; 3; 4 and 5 ppb, respectively, of penicillin G. Each of these solutions is then analysed as follows.
(§7) An aliquot is taken of 200 μl of milk sample and 32.8 μl of solution B prepared in Example 2.2.3, and is placed in an Eppendorf tube. This mixture is incubated at 47° C. for 5 minutes. An assay device is then placed vertically in the Eppendorf tube such that the first end of the assay device is in contact with the mixture. The mixture is allowed to migrate over the assay device while the assembly is incubated at 47° C. for 2 minutes.
(§8) An intensity value ranging from 0 to 10 is awarded to the bands detected, the value 10 being given to the most intense band and the value 0 being given to the least intense band. On this scale, a value 6 is awarded to the reference band. The intensity of the signal observed in the first detection band is inversely proportional to the quantity of penicillin G present in the sample.
In this example, the test is considered to be positive when the first band has an intensity which is lower than that of the reference band. The results shown in Table 2 indicate that this test makes it possible to detect in 7 minutes down to 2.5 ppb of penicillin G in a milk sample.

[2] = biological target: T1, enzyme R39 (soluble exocellular D-alanyl-D-alanine carboxypeptidase produced by Actinomadura R39); test: Test 1, rapid test (5 minutes): strip test for β-lactam antibiotics in milk using enzyme R39; assay type: binding; conditions: for Intensity 1st band: scale 0 to 10, reference band 6, 47° C., 3 min incubation + 2 min migration
Experimental: as §1, §2, §3
as §4, with “diluted 25” for “diluted 50”
as §5, §6
Seven samples of milk are prepared, containing 0; 2; 4; 5; 6; 8 and 10 ppb, respectively, of penicillin G. Each of these solutions is then analysed as follows.
as §7, with “[…]” for “32.8 μl”, “solution A” for “solution B”, “for 3” for “for 5”
as §8
In this example, the test is considered to be positive when the first band has an intensity which is lower than that of the reference band. The results shown in Table 1 indicate that this test makes it possible to detect in 5 minutes down to 4 ppb of penicillin G in a milk sample.

T1 sequence (P39045 50-515): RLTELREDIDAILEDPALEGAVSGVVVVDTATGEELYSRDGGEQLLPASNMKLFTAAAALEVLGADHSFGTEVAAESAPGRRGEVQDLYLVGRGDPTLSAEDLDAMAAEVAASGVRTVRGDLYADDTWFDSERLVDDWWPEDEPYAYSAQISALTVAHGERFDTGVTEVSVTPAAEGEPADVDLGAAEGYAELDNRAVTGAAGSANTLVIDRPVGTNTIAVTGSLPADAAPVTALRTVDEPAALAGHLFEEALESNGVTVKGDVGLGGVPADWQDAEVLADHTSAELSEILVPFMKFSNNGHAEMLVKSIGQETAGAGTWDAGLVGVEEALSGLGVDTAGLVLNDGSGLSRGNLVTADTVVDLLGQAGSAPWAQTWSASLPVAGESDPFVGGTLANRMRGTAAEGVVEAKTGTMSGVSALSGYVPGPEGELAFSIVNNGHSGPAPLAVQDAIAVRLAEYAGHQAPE

For CC1(C)S[C@@H]2[C@H](NC(=O)Cc3ccccc3)C(=O)N2[C@H]1C(=O)O [Penicillin G, penicillin G], the “Intensity 1st band” value ([1]; 2 ppb penicillin G in milk) was 7, the “Intensity 1st band” value ([1]; 2.5 ppb penicillin G in milk) was 5 and the “Intensity 1st band” value ([1]; 3 ppb penicillin G in milk) was 4. The “Intensity 1st band” value ([1]; 4 ppb penicillin G in milk) was 1, the “Intensity 1st band” value ([1]; 5 ppb penicillin G in milk) was 0 and the “lowest concentration detected in a milk sample” value ([1]; in 7 minutes, positive when first band is less intense than reference band) was 2.5 ppb. The “Intensity 1st band” value ([2]; 2 ppb penicillin G in milk) was 8, the “Intensity 1st band” value ([2]; 4 ppb penicillin G in milk) was 5 and the “Intensity 1st band” value ([2]; 5 ppb penicillin G in milk) was 3. For the same compound, the “Intensity 1st band” value ([2]; 6 ppb penicillin G in milk) was 2, the “Intensity 1st band” value ([2]; 8 ppb penicillin G in milk) was 1 and the “Intensity 1st band” value ([2]; 10 ppb penicillin G in milk) was 0. For the same compound, the “lowest concentration detected in a milk sample” value ([2]; in 5 minutes, positive when first band is less intense than reference band) was 4 ppb.
